Entries after “also recorded” stand apart in the source; their conditions may differ.
Legend:
A549 cells [1] = test: Flow cytometry detection of the efficiency of nucleic acid delivery by lipid; assay type: cell-based, human; details: PGY-sRNA-6-FAM, boiling method
Description: Experimental materials: A549 cells (purchased from the Cell Center of the Chinese Academy of Medical Sciences), FAM-sRNA (purchased from Ribobio Biotechnology Co., Ltd.), lipid No. 41, Accuri® C6 instrument (purchased from BD, USA).
Experimental methods: PGY-sRNA-6-FAM was dissolved in 100 μl water, mixed with 4 μl lipid, and prepared by boiling method. Then the mixture was dropped into A549 cells, and after 6 hours of co-incubation, the samples were collected for detection as follows: firstly wash three times with PBS, then digest with trypsin for 3 minutes and remove trypsin, wash with PBS again and then blow down the cells. The detection was performed using Accuri® C6 instrument.
Experimental Method: PGY-sRNA-6-FAM was dissolved in 100 μl water, and mixed with 4 μl lipid, and prepared into lipid-sRNA mixture by boiling method. Then, the mixture was dropped into A549 cells, and after 6 hours of co-incubation, the samples were collected and washed three times with PBS, then digested with trypsin into single cells, washed with re-suspended with PBS and then blown down for Accuri® C6 instrument detection.
Experimental Method: FAM-sRNA was dissolved in 100 μl water, and mixed with 4 μl lipid, prepared by boiling method. Then, the lipid-sRNA mixture was dropped into A549 cells, and after 6 hours of co-incubation, the samples were collected and washed three times with PBS, then digested into single cells with trypsin, re-suspended with PBS and then blown down for Accuri® C6 instrument detection.

[2] = In vivo delivery of single-stranded sRNA by single lipid via gavage (blood, stomach, small intestine, liver); parameters: species or system C57 mice; details: 10 μl lipid, heating method
Description: Tissues sampled: live/stomach/small intestine.

A549 cells [3] = test: Digital PCR (ddPCR) detection of the efficiency of nucleic acid delivery by lipid; assay type: cell-based, human
Description: 2.2 Experimental method: the total cellular RNA was collected and extracted by TRIzol lysis buffer according to the above methods, and reverse transcribed to cDNA using High capacity cRNA Reverse Transcription Kit, and the cDNA from different groups was subject to digital PCR reaction. Refering to the QX200 Droplet Reader and QuantaSoft Software manual for the protocols, the results were analyzed using QuantaSoft software.
2.2 Experimental method: total RNA was collected and extracted by TRIzol lysis buffer according to the above method, and reverse transcribed to cDNA using High capacity cRNA Reverse Transcription Kit, and the cDNA from different groups was subjected to digital PCR reaction. Refer to the QX200 Droplet Reader and QuantaSoft Software manual for the protocols; the results were analyzed using QuantaSoft software.
2.2 Experimental method: Total RNA was collected and extracted by TRIzol lysis buffer according to the above method, and reverse transcribed to cDNA using TaqMan™ MicroRNA Reverse Transcription KitHigh, and the cDNA from different groups was subjected to digital PCR reaction. Refer to the QX200 Droplet Reader and QuantaSoft Software manual for the protocols; the results were analyzed using QuantaSoft software.
2.2 Experimental method: Total RNA was collected and extracted by TRIzol lysis buffer according to the above method, and reversed to cDNA using High capacity cRNA Reverse Transcription Kit, and the cDNA from different groups was subjected to digital PCR reaction. Refer to the QX200 Droplet Reader and QuantaSoft Software manual for the protocols; the results were analyzed using QuantaSoft software.

[4] = tested on: protein expression of the corresponding knockdown genes in A549 cells; test: Western blot of knockdown genes after lipid-mediated siRNA delivery into A549 cells; assay type: cell-based, human; details: LAMP2, XPN2, Ssu72, CPSF4 or β-actin siRNA 400 nM; reverse evaporation method; FIG. 82
Description: 3.3.1 MRC-5 cell (pulmonary embryonic fibroblast), and A549 cell (human lung adenocarcinoma cell) were cultured to logarithmic growth phase, and then plated into 12-well plates at a cell density of 6×10^5/1 mL medium/well; MRC-5 cells were cultured in Eagle's MEM medium (MEM, Gibco); A549 cells were cultured in Ham's F-12 medium (HyClone); followed by incubation overnight at 37° C., and the follow-up experiments were performed after the cells were attached to the walls.
4) Lipid nucleic acid mixture: the mixture of lipid and nucleic acid prepared from the step 2 were added into cells and mixed, and the final concentration of nucleic acid was 400 nM.
3.3.3 After 24 hours of treatment, the cells were stimulated with the stimulant (1 μg/mL poly (I:C) (P1530, Sigma-Aldrich) as double-stranded RNA viruses mimetics) or 3 ng/mL transforming growth factor TGFβ1 (Pepro Tech)). […]

A549 cells [5] = test: Confocal fluorescence microscopy of nucleic acid delivered by lipid in cells; assay type: cell-based, human; details: 4 μl lipid, boiling method; 6 hours of co-incubation
Description: Experimental materials: A549 cells (purchased from the Cell Center of the Chinese Academy of Medical Sciences), PGY-sRNA-6-Cy3 (purchased from Ribobio Biotechnology Co., Ltd.), lipid No. 41, Zeiss LSM780 (purchased from Zeiss, Germany), Alexa Fluor® 488 phalloidin (purchased from Invitrogen, USA), DAPI (purchased from Invitrogen, USA), paraformaldehyde (purchased from sigma, USA).
Experimental methods: PGY-sRNA-6-FAM was dissolved in 100 μl water, mixed with 4 μl lipid, and prepared by the boiling method. Then the mixture was dropped into A549 cells, and after 6 hours of co-incubation, the samples were washed three times with PBS, fixed with 4% paraformaldehyde, washed three times with PBS, stained with Alexa Fluor® 488 phalloidin for 30 min, washed 3 times with PBS, and stained with DAPI for 5 min, washed with PBS, and then sealed.
Experimental method: PGY-sRNA-6-FAM was dissolved in 100 μl water, and mixed with 4 μl lipid, and prepared by boiling method. Then, the mixture was dropped into A549 cells, and after 6 hours of co-incubation, the samples were washed three times with PBS, fixed with 4% paraformaldehyde, washed three times with PBS, stained with Alexa Fluor® 488 phalloidin for 30 min, washed 3 times with PBS, and stained with DAPI for 5 min, PBS washed, and then sealed.

[6] = 4 μl lipid, 6 hours of co-incubation

CCCCCCCCCCCCCCCCCCC[C@@H](O)[C@@H](N)CO [No. 41, Sphinganine (d22:0)]
efficiency in delivering PGY-sRNA-6 double-stranded RNA (flow cytometry) (A549 cells [1]; [6]): 96.7%
efficiency in delivering PGY-sRNA-6 single-stranded RNA (flow cytometry) (A549 cells [1]; [6]): 94.1%
efficiency of nucleic acid delivery by flow cytometry, in words (A549 cells [1]; 6 hours): could efficiently deliver single-stranded and double-stranded nucleic acids into A549 cells
entry of single-stranded small RNA into mouse blood (RT-qPCR) ([2]; 1 nmol each sRNA (PGY-sRNA-23/-26/-32), 6 hours or 12 hours after administration): could promote the entry of small RNA into the blood, protecting it from degradation in the blood; also recorded: could effectively deliver sRNA single-stranded nucleic acid into the mouse blood via oral administration to protect sRNA from degradation; also recorded: the delivery effect was better than POPC and Lipofectamine RNAiMAX
entry of single-stranded small RNA into mouse stomach (RT-qPCR) ([2]; 1 nmol each sRNA, FIG. 109): could promote the entry of small RNA into the stomach cells, protecting it from degradation in the stomach; also recorded: could effectively deliver sRNA single-stranded nucleic acid into the mouse stomach via oral administration to protect sRNA from degradation
entry of single-stranded small RNA into mouse small intestine (RT-qPCR) ([2]; 1 nmol each sRNA, FIG. 110): could promote the entry of small RNA into small intestinal cells, protecting it from degradation in the small intestine; also recorded: could effectively deliver sRNA single-stranded nucleic acid into the mouse small intestine via oral administration to protect sRNA from degradation
entry of single-stranded small RNA into mouse liver (RT-qPCR) ([2]; 1 nmol each sRNA, FIG. 111): could promote the entry of small RNA into the liver, protecting it from degradation in the liver; also recorded: could effectively deliver sRNA single-stranded nucleic acid into the mouse liver via oral administration to protect sRNA from degradation
delivery of HJT-sRNA-m7 dsRNA (ddPCR) (A549 cells [3]; boiling method, 6 hours): could effectively deliver HJT-sRNA-m7 dsRNA into A549 cells; also recorded: the boiling method had better effects than reverse evaporation method
delivery of HJT-sRNA-m7 dsRNA (ddPCR) (A549 cells [3]; reverse evaporation method, 6 hours (No. 39: 6 hours, 12 hours)): could effectively deliver HJT-sRNA-m7 dsRNA into A549 cells
protein knockdown effect (Western blot) [4]: significantly higher than the inhibitory effect of HJT-sRNA-m7 mediated by RNAiMAX
entry of PGY-sRNA-6-Cy3 observed under the confocal microscopy (A549 cells [5]): could effectively deliver double-stranded nucleic acid into A549 cells
